According to US7947647B2, “Synthetic mimics of mammalian cell surface receptors: method and compositions” (The Penn State Research Foundation, priority 2004, dated 2011):

Legend:
[1] = biological target: rabbit polyclonal anti-DNP IgG; assay: Fluorescence polarization binding of DNP and NBD derivatives to anti-DNP IgG; conditions: apparent affinity, PBS pH 7.4, read-out: dissociation constants (Kd)
[2] = tested on: Jurkat lymphocytes; assay: Antibody uptake assay and uptake kinetics (flow cytometry); assay type: cell-based, human; conditions: for efficiency as mediator of ligand (IgG) uptake: anti-DNP/PrA-AF488, flow cytometry
Method: Antibody uptake assays (FIG. 8, Panels A-B, FIG. 10, and FIG. 11). Synthetic receptors 2-9 in DMSO were diluted in RPMI media (0.5 mL, final DMSO concentration=1%) containing Jurkat lymphocytes (1×10^6). These receptor-treated cells were incubated at 37° C. for 1 h, washed with RPMI media (2×0.5 mL) to remove unincorporated receptors/DMSO, and resuspended in fresh media (89 μL). To these cells was added a pre-equilibrated complex (preincubated at 23° C. for 1 h) of anti-DNP IgG (9.6 μg) and the PrA-Alexa Fluor conjugate (PrA-AF488 or PrA-AF633, 3 μg) in phosphate-buffered saline (11 μL, pH 7.4, total volume=100 μL). Cells were typically maintained at 37° C. for 4 h to promote synthetic receptor-mediated endocytosis. Prior to analysis, treated cells were washed with media (0.5 mL), washed again with media containing 6-(2,4-dinitrophenyl)aminohexanoic acid (100 μM, 3×0.5 mL×20 min, 1% DMSO) to compete away any non-internalized protein, washed again with media (0.5 mL), and resuspended in media (0.6 mL) for analysis by epifluorescence microscopy, confocal microscopy, or flow cytometry.
Antibody uptake kinetics (FIG. 8, Panel C). To determine the relative uptake rates shown on the left of FIG. 8C, Jurkat lymphocytes were subjected to the antibody uptake assay (cells were treated with receptors 2-5 at 10 μM for 1 h followed by addition of a pre-equilibrated complex (preincubated at 23° C. for 1 h) of anti-DNP-IgG/PrA-AF488 for 15 min to 4 h) and internalized cellular fluorescence was quantified by flow cytometry. […] Observed rates of ligand uptake (kobs) were calculated with a Michaelis-Menten kinetic model assuming saturating concentrations of substrate (kobs=(Ft−F0)/t). t=time (in minutes), Ft=fluorescence at the specified time, and F0=fluorescence at time=0 min. The slope of plots of fluorescence vs. time provided kobs values that were divided by the basal rate of endocytosis (no receptor) to determine the relative rates of uptake.
These cells were washed with ice-cold media (500 μL) and maintained at 4° C. A pre-equilibrated (1 h at 23° C.) ice-cold solution of RPMI media (100 μL) containing anti-DNP-IgG (7.2 μg) and PrA-AF488 (2 μg) was added. After 1 h at 4° C., the cells were washed with ice-cold RPMI media (2×500 μL). Cells were equilibrated at 37° C. for 20 min prior to fluorescence measurements to dissociate excess surface-bound antibody. After equilibration, uptake experiments were initiated (this was defined as t=0 min). Cells were subsequently incubated at 37° C. for fixed periods of time (0 to 3 h), cooled to 4° C. on ice, and washed with ice-cold RPMI media containing 6-(2,4-dinitrophenyl)aminohexanoic acid (100 μM, 1% DMSO, 3×0.5 mL×10 min at 4° C. followed by 2×0.5 mL×20 min at 23° C.) to remove non-internalized IgG. Intracellular fluorescence was quantified by flow cytometry. Cell surface fluorescence was calculated by subtracting this intracellular fluorescence from cellular fluorescence measured at t=0 min (after the initial equilibration at 37° C. for 20 min; the competition with 6-(2,4-dinitrophenyl)aminohexanoic acid was omitted to analyze this cellular fluorescence).
Synthetic receptors were evaluated as mediators of cellular uptake of protein ligands in living Jurkat lymphocytes, a human T cell line. Confocal laser scanning microscopy and flow cytometry were employed to analyze cells treated with compounds 2-9 for 1 hour followed by addition of anti-DNP IgG complexed with fluorescent conjugates of the IgG-binding protein A (PrA) from S. aureus. […] (FIG. 9, Panel A). This intracellular red fluorescence was 59-fold lower in the absence of receptor 6 consistent with a synthetic receptor-mediated uptake mechanism. The IgG-loaded intracellular compartments were identified as late endosomes and lysosomes by co-localization studies in cells transfected with EGFP-lgp120, a fluorescent protein marker of these compartments.

[3] = tested on: Jurkat lymphocytes; assay: Cellular stability (cell surface half-life) of receptor; assay type: cell-based, human; conditions: 10 μM receptor 1 h, detected with anti-DNP/PrA-AF488
Method: Quantification of the cellular stability of receptor 2 (FIG. 9, Panel C). Jurkat lymphocytes (1×10^7) were incubated with receptor 2 in media (5 mL, 10 μM receptor, 1% DMSO) for 1 h at 37° C. in a 15 mL aerated centrifuge tube. Cells were washed with media (2×5 mL) to remove unincorporated receptor, resuspended in media (10 mL), transferred 2) to a tissue culture flask (25 cm^2), and maintained at 37° C. At fixed time points, an aliquot of this culture (1 mL) was removed from the flask and cells isolated by centrifugation. These cells were resuspended in media (89 μL) and a pre-equilibrated (23° C. for 1 h) complex of anti-DNP IgG (9.6 μg) and PrA488 (3 μg) in phosphate buffered saline (PBS, 11 μL, pH 7.4) was added for 5 min at 37° C. Treated cells were centrifuged (1300 g for 2 min), the supernatant was removed, cells were resuspended in media (0.5 mL), and cellular fluorescence was analyzed by flow cytometry. […]
To evaluate the temporal stability of receptor 2 on the cell surface, the half-life of this compound on Jurkat lymphocytes was quantified by addition of a soluble antibody. Cells were treated with this receptor for 1 hour (10 μM), unincorporated receptor was removed by washing cells with fresh media, and the abundance of 2 as a function of time was detected with a green fluorescent anti-DNP/PrA-AF488 complex.

[4] = tested on: Jurkat lymphocytes; assay: Efflux kinetics from endosomes to plasma membrane by back exchange; assay type: cell-based, human
Method: FIG. 11. Quantification of efflux kinetics of receptor 10 from endosomes to the plasma membrane of Jurkat lymphocytes by back exchange. Cells treated with 10 (1 μM, 1 hour) were cooled to 4° C. and cell surface fluorophores removed (>90%) by repeated washing with ice-cold back exchange media containing BSA (1%) and methyl-β-cyclodextrin (2 mM). Cells were resuspended in back exchange media at 37° C. to resume recycling, cellular fluorescence was quantified by flow cytometry, and loss of fluorescence was evaluated with a one-site exponential decay model.
Quantification of efflux kinetics of receptor 10 from endosomes to the plasma membrane by back exchange (FIG. 11). The efficiency of removal of 10 from the plasma membrane was examined prior to analysis of efflux kinetics. Jurkat lymphocytes (3×10^6) were suspended in ice-cold serum free recycling media (1.5 mL) and maintained on ice (2 min) to block plasma membrane recycling. These cells were resuspended in ice-cold serum free recycling media (1.5 mL, 1% DMSO) containing 10 (1 μM) and maintained on ice (10 min) to allow association of 10 with the plasma membrane. Receptor-treated cells were washed with ice-cold serum free recycling media (2×0.5 mL), resuspended in ice-cold serum free recycling media (1.5 mL), and analyzed by flow cytometry.
These cells were washed with serum free recycling media (2×1 mL) to remove unincorporated receptor (10). These receptor-treated cells were cooled on ice (5 min) to halt recycling and washed with ice-cold back-exchange media (6×1.5 mL×10 min) to selectively remove 10 from the cell surface without affecting the population of 10 in intracellular endosomes. These cells were resuspended in warm back exchange media (37° C., 1.5 mL) to initiate plasma membrane recycling and immediately analyzed by flow cytometry (defined as t=0 min). Cells were isolated by centrifugation, resuspended in warm back exchange media (1.5 mL, 37° C.), incubated at 37° C., and analyzed by flow cytometry as a function of time.
To quantify the rate of plasma membrane recycling, oregon green-derived receptor 10 was employed. Unlike the more strongly cell-associated DNP and NBD-based receptors, the compound 10 binds proteins in cell culture media and can be rapidly and efficiently depleted from cell surfaces by washing cells with “back exchange” media containing bovine serum albumin (BSA, 1%) and methyl-beta-cyclodextrin (Me-beta-CD, 2 mM). This concentration of Me-beta-CD is known to affect neither endocytosis nor plasma membrane recycling. The oregon green-fluorophore of 10 was also chosen for these studies because unlike structurally similar carboxydifluorescein the fluorescence of oregon green is not appreciably quenched in acidic environment of endosomal compartments. […]

[5] = read-out: affinity for vancomycin (Kd); cited from earlier work
[6] = 10 μM receptor for 1 hour, anti-DNP/PrA-AF488

“6-(7-nitrobenzofuran-4-ylamino)hexanoic acid [compound 28, reference compound]” showed a Kd [1] of 0.82 ± 0.144 µM.
Work on `O=C(CCCCCNc1ccc([N+](=O)[O-])cc1[N+](=O)[O-])NCCCNC(=S)Nc1ccc(-c2c3ccc(=O)cc-3oc3cc(O)ccc23)c(C(=O)O)c1` [compound 27] yielded a Kd [1] of 0.023 ± 0.0015 µM.
In the case of `CC(C)CCC[C@@H](C)[C@H]1CC[C@H]2[C@@H]3CC=C4C[C@@H](NCCCNC(=O)CCNC(=O)CCNC(=O)CCCCCNc5ccc([N+](=O)[O-])cc5[N+](=O)[O-])CC[C@]4(C)[C@H]3CC[C@]12C` [receptor 2, N-(3-{[3-({3-[(3β)-cholest-5-en-3-ylamino]propyl}amino)-3-oxopropyl]amino}-3-oxopropyl)-6-[(2,4-dinitrophenyl)amino]hexanamide], the “enhancement of cellular uptake of anti-DNP IgG in magnitude compared with basal levels of endocytosis” value [2, 6] is reported as 208 fold, the “enhancement of cellular uptake of anti-DNP IgG in rate compared with basal levels of endocytosis” value [2, 6] is reported as 391 fold and the “efficiency as mediator of ligand (IgG) uptake” value (“efficiency as mediator” below) [2] is reported as “by far the most efficient”. The “rate of uptake (k)” value ([2]; receptor at 1 μM, anti-DNP-IgG/PrA-AF488, 37° C.) was 0.007327 ± 0.000006 min⁻¹, the “ligand internalization half-life (t1/2)” value ([2]; receptor at 1 μM, calculated as (ln 2)/k) was 1.58 h and the cell surface half-life [3] was 20 h.
With `CC(C)CCC[C@@H](C)[C@H]1CC[C@H]2[C@@H]3CC=C4C[C@@H](NCCCNC(=O)CCNC(=O)CCCCCNc5ccc([N+](=O)[O-])cc5[N+](=O)[O-])CC[C@]4(C)[C@H]3CC[C@]12C` [receptor 3, N-[3-({3-[(3β)-cholest-5-en-3-ylamino]propyl}amino)-3-oxopropyl]-6-[(2,4-dinitrophenyl)amino]hexanamide] the “efficiency as mediator” value [2] was “dramatically diminished the effectiveness”.
For `CC(C)CCC[C@@H](C)[C@H]1CC[C@H]2[C@@H]3CC=C4C[C@@H](NCCCNC(=O)CCCCCNc5ccc([N+](=O)[O-])cc5[N+](=O)[O-])CC[C@]4(C)[C@H]3CC[C@]12C` [receptor 4, N-{3-[(3β)-cholest-5-en-3-ylamino]propyl}-6-[(2,4-dinitrophenyl)amino]hexanamide], the “efficiency as mediator” value [2] was “dramatically diminished the effectiveness”.
For `CC(C)CCC[C@@H](C)[C@H]1CC[C@H]2[C@@H]3CC=C4C[C@@H](NC(=O)CCNC(=O)CCCCCNc5ccc([N+](=O)[O-])cc5[N+](=O)[O-])CC[C@]4(C)[C@H]3CC[C@]12C` [receptor 5, N-{3-[(3β)-cholest-5-en-3-ylamino]-3-oxopropyl}-6-[(2,4-dinitrophenyl)amino]hexanamide], the “efficiency as mediator” value [2] was “essentially abolished internalization of IgG” and the “reduction of IgG delivery relative to receptor 4 (secondary amine converted to secondary amide)” value ([2]; at 10 μM) was “over 50 fold”.
With `CC(C)CCC[C@@H](C)[C@H]1CC[C@H]2[C@@H]3CC=C4C[C@@H](NCCCNC(=O)CCNC(=O)CCNC(=O)CCCCCNc5ccc([N+](=O)[O-])c6nonc56)CC[C@]4(C)[C@H]3CC[C@]12C` [receptor 6, N-(3-{[3-({3-[(3β)-cholest-5-en-3-ylamino]propyl}amino)-3-oxopropyl]amino}-3-oxopropyl)-6-(7-nitrobenzofurazan-4-ylamino)hexanamide] the “intracellular red fluorescence lower in the absence of receptor” value ([2]; 10 μM receptor, red fluorescent anti-DNP IgG/PrA) was 59 fold.
With `CC(C)CCCC(C)[C@H]1CCC2C3CC=C4CC(NCCCNC(=O)CCNC(=O)c5ccc(-c6c7cc(F)c(=O)cc-7oc7cc(O)c(F)cc67)c(C(=O)O)c5)CC[C@]4(C)C3CC[C@@]21C` (stereo partly drawn) [receptor 10] the recycling half-life ([4]; 1 μM, back exchange media 37° C., one-phase exponential decay) was 2.8 ± 0.8 min, the “removal of receptor from the cell surface” value ([4]; additional/repeated wash steps with back-exchange media) was > 90% and the “loss of total cellular fluorescence” value ([4]; four total wash steps with back-exchange media, 1 μM) was 84%. The “loss of total cellular fluorescence” value ([4]; single wash with ice-cold back-exchange media, 1 μM) was 44%.
In the case of D-Phe-D-Ala [D-Phe-D-Ala dipeptide], the Kd [5] is given as ~7 µM.
